Experiment [1] deals with T1, XtTPC3 (TPC3 from Xenopus tropicalis) (Xenopus tropicalis, UniProt A0A6I8S6D1, R187Q/D511C).
T1 construct: gene LOC100495031; full-length cDNA in pGEMHE, Xenopus laevis oocytes (cRNA); pCXN2 in HEK293T for gating charges; homodimer
T1 sequence (A0A6I8S6D1 1-779 R187Q/D511C): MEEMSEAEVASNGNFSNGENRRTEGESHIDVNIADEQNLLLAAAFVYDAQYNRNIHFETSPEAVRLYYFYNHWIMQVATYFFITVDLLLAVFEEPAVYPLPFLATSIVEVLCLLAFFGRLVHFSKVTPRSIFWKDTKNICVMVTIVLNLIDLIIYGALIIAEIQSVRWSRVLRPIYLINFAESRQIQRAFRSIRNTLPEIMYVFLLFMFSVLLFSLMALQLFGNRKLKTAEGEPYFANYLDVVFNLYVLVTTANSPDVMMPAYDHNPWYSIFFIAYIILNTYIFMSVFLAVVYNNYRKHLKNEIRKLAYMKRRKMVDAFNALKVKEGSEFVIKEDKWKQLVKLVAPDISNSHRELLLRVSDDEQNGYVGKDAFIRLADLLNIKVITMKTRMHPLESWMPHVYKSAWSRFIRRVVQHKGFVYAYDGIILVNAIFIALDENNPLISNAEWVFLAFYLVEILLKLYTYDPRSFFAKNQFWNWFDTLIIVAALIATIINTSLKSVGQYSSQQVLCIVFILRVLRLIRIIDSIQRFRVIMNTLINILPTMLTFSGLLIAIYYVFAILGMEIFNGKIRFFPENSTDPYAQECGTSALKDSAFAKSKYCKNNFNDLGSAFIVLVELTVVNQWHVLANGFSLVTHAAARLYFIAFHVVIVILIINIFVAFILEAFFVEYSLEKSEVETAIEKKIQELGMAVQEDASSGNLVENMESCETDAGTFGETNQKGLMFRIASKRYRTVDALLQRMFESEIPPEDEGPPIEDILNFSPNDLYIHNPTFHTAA
The experiment is described as follows: two-electrode voltage clamp, Cys-accessibility (activation rate). The format is cell-based. Conditions: covalent at introduced Cys511; 0.5 mM MTSES in ND-96, pH 7.4, room temperature; +135 mV pulses; PI(3,4)P2 present (after long depolarization); Xenopus oocytes. A general note: Two-electrode voltage clamp holds a large cell at a set potential and records current.

The target of experiment [2] is T2, XtTPC3 (TPC3 from Xenopus tropicalis) (Xenopus tropicalis, UniProt A0A6I8S6D1, D511C).
T2 construct: gene LOC100495031; full-length cDNA in pGEMHE, Xenopus laevis oocytes (cRNA); pCXN2 in HEK293T for gating charges; homodimer
T2 sequence (A0A6I8S6D1 1-779 D511C): T1 sequence (A0A6I8S6D1 1-779 R187Q/D511C) with Q187R
Described as above. The class given is cell-based. Conditions: covalent at introduced Cys511; 0.5 mM MTSES in ND-96, pH 7.4, room temperature; +135 mV pulses; PI(3,4)P2 present (after long depolarization); Xenopus oocytes.

Where a chain is given by its changes, count along the chain named.

As to `CS(=O)(=O)SCCS(=O)(=O)O` [MTSES], the MTSES-modification rate in experiment [1] amounted to 0.011 ± 0.005 s⁻¹; in experiment [2], 0.043 ± 0.014 s⁻¹.

The values above are taken from paper PMC8665364, “Phosphoinositide regulates dynamic movement of the S4 voltage sensor in the second repeat in two-pore channel 3” (The Journal of Biological Chemistry, 2021).
